Here are results for 49 compounds from patent US11311013B2, “Benzimidazole compound or salt thereof, agricultural and horticultural insecticidal and acaricidal agent containing said compound, and method for using same” (NIHON NOHYAKU CO., LTD., priority 2018, dated 2022).

For orientation: mortality means the share of the test organisms that died.

In one series the test system is Diamondback moth (Plutella xylostella). Kind of series: Insecticidal test on diamondback moth, dip of Chinese cabbage seedlings with laid eggs. It counts as in vivo. The settings on record: 144 h, dip about 30 seconds, 25° C., 6 days after dip treatment, hatched larvae counted, read-out: insecticidal efficacy (corrected mortality rate) activity level. An excerpt: Insecticidal Test on Diamondback Moth (Plutella xylostella)
Adults of diamondback moth were released onto Chinese cabbage seedlings and allowed to lay eggs thereon. At 2 days after the release of the adults, the Chinese cabbage seedlings with laid eggs were dipped for about 30 seconds in agrochemical dispersions diluted to 500 ppm, each of which contained a different benzimidazole compound represented by the general formula (1) of the present invention or salt thereof as an active ingredient. After air-dried, the seedlings were kept in a thermostatic chamber at 25° C. At 6 days after the dip treatment, the number of hatched larvae per plot was counted, the corrected mortality rate was calculated according to the formula shown below, and the insecticidal efficacy was evaluated according to the criteria of Test Example 2. This test was conducted in triplicate using 10 adults of diamondback moth per plot. Corrected mortality rate (%)=(Number of hatched larvae in a non-treatment plot−Number of hatched larvae in a treatment plot)/(Number of hatched larvae in a non-treatment plot)×100 [Expression 3]
As for `CCS(=O)(=O)n1c(-c2ccc(OCC(F)(F)C(F)(F)F)nc2)nc2ccccc21` [Compound 1-2, 2-(2-(2,2,3,3,3-pentafluoropropyloxy)pyridin-5-yl)-1-ethanesulfonyl benzimidazole], the mortality at 500 ppm amounted to 100%.

In another series the test system is Two-spotted spider mite (Tetranychus urticae). Kind of series: Acaricidal action on two-spotted spider mite, kidney bean leaf disk spray. Type of series: in vivo. The settings on record: 500 ppm, 25° C., two days after treatment. The procedure: Acaricidal Action on Two-Spotted Spider Mite (Tetranychus urticae)
Leaf disk having a diameter of 2 cm was prepared by leaves of kidney bean, and the leaf disk was placed on the wetted filter paper. Adult hens of two-spotted spider mite were inoculated on the wetted filter paper, and then 50 ml of an agrochemical dispersion, prepared by diluting a formulation containing the benzimidazole compound represented by the general formula (1) of the present invention or salt thereof as an active ingredient to adjust each of the concentrations to 500 ppm, was sprayed on turntable uniformly. After the spraying, it was allowed to stand in a thermostatic chamber at 25° C. Two days after the treatment of an agrochemical dispersion, the dead mites were counted, the corrected mortality rate was calculated according to the formula shown below, and the acaricidal efficacy was evaluated according to the criteria of Test Example 2. This test was conducted in duplicate using 10 adult hens of two-spotted spider per plot. Corrected mortality (%)=(Number of dead mites in a non-treatment plot−Number of dead mites in a treatment plot)/(Number of dead mites in a non-treatment plot)×100 [Expression 4]
Take `CCS(=O)(=O)n1c(-c2ccc(OCC(F)(F)C(F)C(F)(F)F)nc2)nc2ccccc21` (centres unmarked) [Compound 1-24]: the “acaricidal efficacy (corrected mortality rate) activity level” value (“acaricidal efficacy” for short) is “D or higher”.

In the case of `CCS(=O)(=O)n1c(-c2ccc(OCC(F)(F)C(F)(F)F)nc2)nc2cc(Cl)ccc21` [Compound 1-12], the “acaricidal efficacy” value was “D or higher”.

Regarding `CCS(=O)(=O)n1c(-c2ccc(OCCC(F)(F)C(F)(F)C(F)(F)C(F)(F)C(F)(F)C(F)(F)F)nc2)nc2ccccc21` [Compound 5-11], the “acaricidal efficacy” value was “D or higher”.

As for `CCCCCOc1ccc(-c2nc3ccccc3n2S(=O)(=O)CC)cn1` [Compound 1-48], the “acaricidal efficacy” value is recorded as “D or higher”.

`CCS(=O)(=O)n1c(-c2ccc(SCc3ccccc3)nc2)nc2ccccc21` [Compound 5-21]: the “acaricidal efficacy” value was “D or higher”.

Regarding `CCCCCCOc1ccc(-c2nc3ccccc3n2S(=O)(=O)CC)cn1` [Compound 1-49], the “acaricidal efficacy” value is “D or higher”.

With `CS(=O)(=O)n1c(-c2ccc(OCC(F)(F)C(F)(F)F)nc2)nc2ccccc21` [Compound 1-3], the “acaricidal efficacy” value is reported as “D or higher”.

On to `CCS(=O)(=O)n1c(-c2ccc(OCC(F)(F)C(F)(F)C(F)(F)F)nc2)nc2ccc(Br)cc21` [Compound 1-22], for which the “acaricidal efficacy” value is on record as “D or higher”.

For `CCS(=O)(=O)n1c(-c2ccc(OCc3ccc(SC(F)(F)F)cc3)nc2)nc2ccccc21` [Compound 1-43], the “acaricidal efficacy” value is “D or higher”.

Consider `CCS(=O)(=O)n1c(-c2ccc(Oc3ccc(OC(F)(F)F)cc3)nc2)nc2ccccc21` [Compound 1-46], for which the “acaricidal efficacy” value was “D or higher”.

As to `CCS(=O)(=O)n1c(-c2ccc(OCC(F)(F)C(F)(F)F)nc2)nc2ccc(Br)cc21` [Compound 1-10], the “acaricidal efficacy” value is “D or higher”.

In the case of `CCS(=O)(=O)n1c(-c2ccc(OCC(F)(F)C(F)(F)C(F)(F)C(F)(F)C(F)(F)C(F)F)nc2)nc2ccccc21` [Compound 5-12], the “acaricidal efficacy” value was “D or higher”.

On to `CCCCOc1ccc(-c2nc3ccccc3n2S(=O)(=O)CC)cn1` [Compound 1-47], for which the “acaricidal efficacy” value is listed as “D or higher”.

As for `CCS(=O)(=O)n1c(-c2ccc(OCC(F)(F)C(F)(F)F)nc2)nc2cc(C)c(C)cc21` [Compound 1-17], the “acaricidal efficacy” value is given as “D or higher”.

In the case of `CCS(=O)(=O)n1c(-c2ccc(Oc3ccc(S(=O)(=O)C(F)(F)F)cc3)nc2)nc2ccccc21` [Compound 1-42], the “acaricidal efficacy” value is reported as “D or higher”.

Take `CCS(=O)(=O)n1c(-c2ccc(OC3CCCCC3)nc2)nc2ccccc21` [Compound 5-3]: the “acaricidal efficacy” value was “D or higher”.

With `CCS(=O)(=O)n1c(-c2ccc(OCC(F)(F)C(F)(F)F)nc2)nc2ccc(Cl)cc21` [Compound 1-13], the “acaricidal efficacy” value was “D or higher”.

Consider `CCCOc1ccc(-c2nc3ccccc3n2S(=O)(=O)CC)cn1` [Compound 5-1], for which the “acaricidal efficacy” value was “D or higher”.

Consider `CCS(=O)(=O)n1c(-c2ccc(OCc3ccc([S+]([O-])C(F)(F)F)cc3)nc2)nc2ccccc21` (centres unmarked) [Compound 1-44], for which the “acaricidal efficacy” value is listed as “D or higher”.

Turning to `CCS(=O)(=O)n1c(-c2ccc(SC3CCCCC3)nc2)nc2ccccc21` [Compound 5-19], the “acaricidal efficacy” value is “D or higher”.

`CCS(=O)(=O)n1c(-c2ccc(OC(C(F)(F)F)C(F)(F)F)nc2)nc2ccccc21` [Compound 1-23]: the “acaricidal efficacy” value is given as “D or higher”.

Consider `CCS(=O)(=O)n1c(-c2ccc(OC3CCCC3)nc2)nc2ccccc21` [Compound 1-50], for which the “acaricidal efficacy” value was “D or higher”.

Regarding `CCS(=O)(=O)n1c(-c2ccc(SC3CCCC3)nc2)nc2ccccc21` [Compound 5-18], the “acaricidal efficacy” value is given as “D or higher”.

Turning to `CCS(=O)(=O)n1c(-c2ccc(OCCOC)nc2)nc2ccccc21` [Compound 5-5], the “acaricidal efficacy” value is recorded as “D or higher”.

In the case of `CCS(=O)(=O)n1c(-c2ccc(OCCSC)nc2)nc2ccccc21` [Compound 5-6], the “acaricidal efficacy” value is on record as “D or higher”.

Consider `CCS(=O)(=O)n1c(-c2cnc(OCC(F)(F)C(F)F)c(Cl)c2)nc2ccccc21` [Compound 5-10], for which the “acaricidal efficacy” value is reported as “D or higher”.

Turning to `CCS(=O)(=O)n1c(-c2cnc(OCC(F)(F)F)c(Cl)c2)nc2ccccc21` [Compound 5-9], the “acaricidal efficacy” value is reported as “D or higher”.

With `CCS(=O)(=O)n1c(-c2ccc(OCC(F)(F)F)nc2)nc2ccccc21` [Compound 1-1], the “acaricidal efficacy” value is on record as “D or higher”.

Turning to `CCS(=O)(=O)n1c(-c2ccc(OCC(F)(F)C(F)(F)F)nc2)nc2ccccc21` [Compound 1-2, 2-(2-(2,2,3,3,3-pentafluoropropyloxy)pyridin-5-yl)-1-ethanesulfonyl benzimidazole], the “acaricidal efficacy” value was “D or higher”.

As for `CCS(=O)(=O)n1c(-c2ccc(OC3CCCCCC3)nc2)nc2ccccc21` [Compound 1-51], the “acaricidal efficacy” value is listed as “D or higher”.

For the compound `CCS(=O)(=O)n1c(-c2ccc(OCC(F)(F)C(F)F)nc2)nc2ccccc21` [Compound 1-19], the “acaricidal efficacy” value is given as “D or higher”.

As for `CCCSc1ccc(-c2nc3ccccc3n2S(=O)(=O)CC)cn1` [Compound 5-14], the “acaricidal efficacy” value is reported as “D or higher”.

As to `CCS(=O)(=O)n1c(-c2ccc(Oc3ccc([Si](C)(C)C)cc3)nc2)nc2ccccc21` [Compound 5-8], the “acaricidal efficacy” value is “D or higher”.

As to `CCS(=O)(=O)n1c(-c2ccc(OCCC(C)(C)C)nc2)nc2ccccc21` [Compound 5-4], the “acaricidal efficacy” value is given as “D or higher”.

Consider `CCS(=O)(=O)n1c(-c2ccc(OCC(F)(F)C(F)(F)F)nc2)nc2cc(Br)c(Br)cc21` [Compound 1-15], for which the “acaricidal efficacy” value is recorded as “D or higher”.

On to `CCCCS(=O)(=O)n1c(-c2ccc(OCC(F)(F)C(F)(F)F)nc2)nc2ccccc21` [Compound 1-5], for which the “acaricidal efficacy” value is given as “D or higher”.

`CCS(=O)(=O)n1c(-c2ccc(OC(C)C)nc2)nc2ccccc21` [Compound 5-2]: the “acaricidal efficacy” value is “D or higher”.

Turning to `CCCS(=O)(=O)n1c(-c2ccc(OCC(F)(F)C(F)(F)F)nc2)nc2ccccc21` [Compound 1-4], the “acaricidal efficacy” value is “D or higher”.

For `CCS(=O)(=O)n1c(-c2ccc(Oc3ccc([S+]([O-])C(F)(F)F)cc3)nc2)nc2ccccc21` (centres unmarked) [Compound 1-41], the “acaricidal efficacy” value is “D or higher”.

As to `CCS(=O)(=O)n1c(-c2ccc(OCC(F)(F)C(F)(F)F)nc2)nc2cc(Cl)c(Cl)cc21` [Compound 1-14], the “acaricidal efficacy” value is on record as “D or higher”.

Consider `CCS(=O)(=O)n1c(-c2cncc(OCC(F)(F)C(F)(F)F)c2)nc2ccccc21` [Compound 3-1], for which the “acaricidal efficacy” value is given as “D or higher”.

As for `CCCCN(C)c1ccc(-c2nc3ccccc3n2S(=O)(=O)CC)cn1` [Compound 5-25], the “acaricidal efficacy” value was “D or higher”.

Take `CCS(=O)(=O)n1c(-c2ccc(SCC3CC3)nc2)nc2ccccc21` [Compound 5-20]: the “acaricidal efficacy” value is “D or higher”.

`CCS(=O)(=O)n1c(-c2ccc(OCC(F)(F)C(F)(F)C(F)(F)F)nc2)nc2ccccc21` [Compound 1-20]: the “acaricidal efficacy” value was “D or higher”.

On to `CCCCSc1ccc(-c2nc3ccccc3n2S(=O)(=O)CC)cn1` [Compound 5-17], for which the “acaricidal efficacy” value is “D or higher”.

`CCS(=O)(=O)n1c(-c2ccc(Oc3ccc(SC(F)(F)F)cc3)nc2)nc2ccccc21` [Compound 1-40]: the “acaricidal efficacy” value is listed as “D or higher”.

Regarding `CCCCN(CCCC)c1ccc(-c2nc3ccccc3n2S(=O)(=O)CC)cn1` [Compound 5-24], the “acaricidal efficacy” value was “D or higher”.

On to `CCS(=O)(=O)n1c(-c2cnc(OCC(F)(F)C(F)(F)F)c(Cl)c2)nc2ccccc21` [Compound 1-18], for which the “acaricidal efficacy” value is “D or higher”.

Turning to `O=S(=O)(CCl)n1c(-c2ccc(OCC(F)(F)C(F)(F)F)nc2)nc2ccccc21` [Compound 1-45], the “acaricidal efficacy” value is given as “D or higher”.
